Assay [1] concerns the target T1, G-protein coupled receptor 35 (Homo sapiens, UniProt Q9HC97). Kind of assay: GPR35 antagonists blocking zaprinast-driven arrestin recruitment, primary screen, imaging, U2OS, beta-arrestin-GFP, zaprinast agonist (AID 2058).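 Note: antagonist potency meaning inhibition of agonist-induced arrestin redistribution.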 Type of assay: functional.
Assay [2] addresses T1, G-protein coupled receptor 35. Kind of assay: SAR Analysis for the identification of Selective Antagonists of ERK1/2 Activity in GPR35-Overexpressing U2OS Cells. [Related pubchem assays: 2079, 2058 ]. The format is functional, cell-based.
Assay [3] concerns the target T2, Tyrosine-protein phosphatase non-receptor type 12 (Homo sapiens, UniProt Q05209).
T2 sequence (Q05209 whole entry): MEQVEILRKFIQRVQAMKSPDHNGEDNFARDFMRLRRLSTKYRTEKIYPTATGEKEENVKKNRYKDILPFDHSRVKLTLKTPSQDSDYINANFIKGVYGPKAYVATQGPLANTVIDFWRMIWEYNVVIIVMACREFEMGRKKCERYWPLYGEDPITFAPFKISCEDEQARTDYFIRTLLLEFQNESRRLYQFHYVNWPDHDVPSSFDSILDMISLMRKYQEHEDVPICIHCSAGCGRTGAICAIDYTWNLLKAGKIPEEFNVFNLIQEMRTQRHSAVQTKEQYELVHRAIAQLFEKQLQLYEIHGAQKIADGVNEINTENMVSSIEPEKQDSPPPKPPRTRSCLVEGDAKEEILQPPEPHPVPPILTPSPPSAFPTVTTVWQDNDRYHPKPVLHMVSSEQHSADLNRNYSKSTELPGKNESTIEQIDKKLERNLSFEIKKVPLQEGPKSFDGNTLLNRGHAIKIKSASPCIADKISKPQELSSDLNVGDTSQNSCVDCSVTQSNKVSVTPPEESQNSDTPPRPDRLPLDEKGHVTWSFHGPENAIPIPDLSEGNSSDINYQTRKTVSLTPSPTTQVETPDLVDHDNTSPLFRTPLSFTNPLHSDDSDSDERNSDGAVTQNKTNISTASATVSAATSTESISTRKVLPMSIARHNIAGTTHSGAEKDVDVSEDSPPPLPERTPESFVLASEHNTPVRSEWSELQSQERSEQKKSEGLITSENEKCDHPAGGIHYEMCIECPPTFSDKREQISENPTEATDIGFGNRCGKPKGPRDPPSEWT
The experiment in a line: SAR Selectivity Analysis of small molecule inhibitors of PEST using pCAP in a fluorescence assay. [Related pubchem assays (depositor defined):AID1779, AID1784, AID2135]. The format is functional.

In assay [4] the target is T3, Tyrosine-protein phosphatase non-receptor type 22 (Homo sapiens, UniProt Q9Y2R2).
T3 sequence (Q9Y2R2 whole entry): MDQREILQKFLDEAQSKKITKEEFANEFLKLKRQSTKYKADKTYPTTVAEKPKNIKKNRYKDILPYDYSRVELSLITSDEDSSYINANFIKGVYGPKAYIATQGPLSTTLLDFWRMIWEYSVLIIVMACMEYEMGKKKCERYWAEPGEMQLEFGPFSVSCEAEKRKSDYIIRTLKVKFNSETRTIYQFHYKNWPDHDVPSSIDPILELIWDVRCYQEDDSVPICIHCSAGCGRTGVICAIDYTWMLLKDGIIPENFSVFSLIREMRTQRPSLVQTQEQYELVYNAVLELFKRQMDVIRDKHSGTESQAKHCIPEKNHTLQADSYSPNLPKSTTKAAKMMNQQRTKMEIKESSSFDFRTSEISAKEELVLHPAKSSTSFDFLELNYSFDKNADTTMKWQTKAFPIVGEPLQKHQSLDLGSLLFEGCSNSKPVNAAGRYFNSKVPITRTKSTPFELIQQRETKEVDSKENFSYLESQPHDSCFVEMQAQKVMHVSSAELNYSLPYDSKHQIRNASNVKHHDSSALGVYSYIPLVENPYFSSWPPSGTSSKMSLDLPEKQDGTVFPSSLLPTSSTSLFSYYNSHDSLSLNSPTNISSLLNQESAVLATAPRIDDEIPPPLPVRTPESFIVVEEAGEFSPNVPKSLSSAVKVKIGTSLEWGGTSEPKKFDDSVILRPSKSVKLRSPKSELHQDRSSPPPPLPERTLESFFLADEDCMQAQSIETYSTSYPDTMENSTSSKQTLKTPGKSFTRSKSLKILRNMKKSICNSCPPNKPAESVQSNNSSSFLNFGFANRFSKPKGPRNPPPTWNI
Kind of assay: SAR LYP1 Fluorescent Assay using OMFP substrate for In Vitro dose response studies - Set 3. [Related pubchem assays (depositor defined):AID1779, AID1784, AID2140, AID2686]. Type of assay: functional.

Assay [5] concerns the target T4, Tyrosine-protein phosphatase non-receptor type 7 (Homo sapiens, UniProt P35236).
T4 sequence (P35236 whole entry): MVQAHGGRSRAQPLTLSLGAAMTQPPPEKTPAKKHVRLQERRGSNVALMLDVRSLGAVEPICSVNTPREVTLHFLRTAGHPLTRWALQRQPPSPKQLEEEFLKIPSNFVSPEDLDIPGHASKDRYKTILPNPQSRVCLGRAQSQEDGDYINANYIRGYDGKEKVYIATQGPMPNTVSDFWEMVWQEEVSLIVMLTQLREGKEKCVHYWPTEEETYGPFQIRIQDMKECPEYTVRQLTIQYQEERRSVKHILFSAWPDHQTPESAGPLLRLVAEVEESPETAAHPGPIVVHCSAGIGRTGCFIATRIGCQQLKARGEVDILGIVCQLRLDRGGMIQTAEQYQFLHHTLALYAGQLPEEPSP
The experiment in a line: HePTP (PTPN7) phosphatase inhibitor potency, SAR follow-up, biochemical, set 2 (AID 449736). The format is functional.

The target of assay [6] is T3, Tyrosine-protein phosphatase non-receptor type 22. The experiment in a line: LYP (PTPN22) phosphatase inhibitor potency, SAR follow-up, biochemical, pCAP fluorogenic substrate, fluorescence, set 3 (AID 449727). The format is functional.
Assay [7] addresses G-protein coupled receptor 55 (Homo sapiens, UniProt Q9Y2T6). The experiment in a line: GPR55 antagonists, SAR follow-up, counter-screen for GPR35 antagonist project, imaging, image-based (AID 2397). The format is functional.
The target in assay [8] is T5, Delta-type opioid receptor (Homo sapiens, UniProt P41143). Kind of assay: HTS Image-Based Screen for Antagonists of the DOR Receptor. [Related pubchem assays (depositor defined):AID1777, AID1785, AID1786, AID2133]. Type of assay: functional.
The target of assay [9] is T6, Mu-type opioid receptor (Homo sapiens, UniProt P35372). The experiment in a line: HTS Image-Based Screen for Agonists of the MOR Receptor. [Related pubchem assays (depositor defined):AID1777, AID1785, AID1786, AID2133]. The format is functional.
Assay [10] concerns the target T5, Delta-type opioid receptor. The experiment in a line: HTS Image-Based Screen for Agonists of the DOR Receptor. [Related pubchem assays (depositor defined):AID1777, AID1786, AID2133]. Type of assay: functional.
Assay [11] deals with T7, Kappa-type opioid receptor (Homo sapiens, UniProt P41145). Type of assay: functional.
For assay [12], the target named is T7, Kappa-type opioid receptor. Type of assay: functional. This is another data set of the same source.
Assay [13] addresses T7, Kappa-type opioid receptor. The experiment in a line: SAR analysis of small molecule agonists of the kappa opioid receptor via a luminescent beta-arrestin assay. [Related pubchem assays (depositor defined):AID1777, AID1786, AID1966, AID2133, AID2136, AID2348, AID2352, AID2357, AID2359, AID2370, AID2420, AID2478, AID2491, AID2492, AID2493, AID2497, AID2498, AID2500, AID449737, AID488822, AID488842]. Type of assay: functional.

In assay [14] the target is T6, Mu-type opioid receptor. The experiment in a line: MOR agonists by imaging, SAR follow-up, image-based (AID 2352). Type of assay: functional.
In assay [15] the target is T5, Delta-type opioid receptor. The experiment in a line: DOR agonists, SAR follow-up, image-based (AID 2370). The format is functional.
Assay [16] deals with T7, Kappa-type opioid receptor. The experiment in a line: KOR antagonists by imaging, SAR follow-up, image-based (AID 2348). The format is functional.
Assay [17] has as its target T6, Mu-type opioid receptor. Kind of assay: MOR antagonists, SAR follow-up, image-based (AID 2420).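 Note: compounds added before stimulation of receptor with agonist DAMGO.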 The format is functional.
In assay [18] the target is T7, Kappa-type opioid receptor. The experiment in a line: KOR agonist analogs, imaging readout, SAR follow-up, image-based (AID 2359). The format is functional.
Assay [19] has as its target T5, Delta-type opioid receptor. Kind of assay: DOR antagonists, SAR follow-up, image-based (AID 2357). The format is functional.

This is an account of results in ChEMBL document CHEMBL1201862, “PubChem BioAssay data set” (2004).

The structures appear in SMILES notation. The source made the active and inactive calls. Where only a bound is given, the exact number is not on record here.

As a reminder, the IC50 is the concentration that gives 50% inhibition. As usually defined, the EC50 is the concentration that produces a half-maximal response.

T6 sequence (P35372 whole entry): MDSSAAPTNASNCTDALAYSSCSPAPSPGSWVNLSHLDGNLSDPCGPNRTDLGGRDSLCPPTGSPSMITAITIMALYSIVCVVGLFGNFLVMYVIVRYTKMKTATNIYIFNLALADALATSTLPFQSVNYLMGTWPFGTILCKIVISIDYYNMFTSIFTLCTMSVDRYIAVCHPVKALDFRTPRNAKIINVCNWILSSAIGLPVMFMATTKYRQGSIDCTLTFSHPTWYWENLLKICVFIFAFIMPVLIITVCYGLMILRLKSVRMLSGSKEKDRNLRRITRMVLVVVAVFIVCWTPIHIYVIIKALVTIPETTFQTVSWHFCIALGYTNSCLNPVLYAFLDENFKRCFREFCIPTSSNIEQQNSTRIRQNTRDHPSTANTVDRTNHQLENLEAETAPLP
T5 sequence (P41143 whole entry): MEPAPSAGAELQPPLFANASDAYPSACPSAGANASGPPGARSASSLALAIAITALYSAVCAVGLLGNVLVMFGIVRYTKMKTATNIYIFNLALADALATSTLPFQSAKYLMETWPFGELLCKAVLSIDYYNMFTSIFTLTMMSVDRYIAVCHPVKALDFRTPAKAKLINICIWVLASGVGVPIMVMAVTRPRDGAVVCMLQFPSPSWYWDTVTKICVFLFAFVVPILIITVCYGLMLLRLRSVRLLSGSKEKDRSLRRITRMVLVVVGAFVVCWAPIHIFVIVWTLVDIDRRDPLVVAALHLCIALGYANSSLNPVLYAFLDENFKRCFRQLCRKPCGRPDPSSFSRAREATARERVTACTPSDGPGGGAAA
T7 sequence (P41145 whole entry): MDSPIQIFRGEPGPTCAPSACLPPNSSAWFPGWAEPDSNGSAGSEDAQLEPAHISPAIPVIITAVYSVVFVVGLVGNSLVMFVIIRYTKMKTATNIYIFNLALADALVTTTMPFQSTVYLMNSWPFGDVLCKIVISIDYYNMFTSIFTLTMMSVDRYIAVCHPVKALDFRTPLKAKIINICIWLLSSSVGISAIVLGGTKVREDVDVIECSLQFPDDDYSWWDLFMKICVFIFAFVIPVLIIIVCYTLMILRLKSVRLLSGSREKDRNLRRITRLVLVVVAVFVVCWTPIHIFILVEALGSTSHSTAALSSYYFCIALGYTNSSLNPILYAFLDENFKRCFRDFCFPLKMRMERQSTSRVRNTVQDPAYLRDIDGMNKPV
T1 sequence (Q9HC97 whole entry): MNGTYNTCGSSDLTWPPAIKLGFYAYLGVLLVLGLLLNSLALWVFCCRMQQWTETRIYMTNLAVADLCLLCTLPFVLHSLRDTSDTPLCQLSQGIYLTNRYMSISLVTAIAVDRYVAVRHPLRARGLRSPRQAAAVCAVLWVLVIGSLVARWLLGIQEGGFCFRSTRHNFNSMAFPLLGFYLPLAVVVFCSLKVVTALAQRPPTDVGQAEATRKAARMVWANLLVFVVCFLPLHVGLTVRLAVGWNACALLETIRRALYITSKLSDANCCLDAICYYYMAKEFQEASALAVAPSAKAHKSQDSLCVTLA
G-protein coupled receptor 55, sequence (Q9Y2T6 whole entry): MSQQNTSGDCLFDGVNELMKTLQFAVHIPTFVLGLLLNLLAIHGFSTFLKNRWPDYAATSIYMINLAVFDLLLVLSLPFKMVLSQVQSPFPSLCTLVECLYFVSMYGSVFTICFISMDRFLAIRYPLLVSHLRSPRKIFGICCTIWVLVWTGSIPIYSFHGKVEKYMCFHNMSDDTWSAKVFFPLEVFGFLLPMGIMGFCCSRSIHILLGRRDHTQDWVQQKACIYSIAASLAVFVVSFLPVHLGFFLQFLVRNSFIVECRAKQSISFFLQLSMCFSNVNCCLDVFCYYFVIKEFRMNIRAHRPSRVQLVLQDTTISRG

Consider `O=C(CCCN1C(=O)/C(=C\c2ccccc2)SC1=S)Nc1ccc(C(=O)O)cc1`, for which the half-maximal inhibitory concentration (IC50) is 1.16 µM (active) in assay [1]; 3.29 µM (active) in assay [2]; 15.8 µM (active) in assay [3]; 72.2 µM (active) in assay [4]; 1.89 µM (active) in assay [5]; 79.5 µM (active) in [6]. In addition, the IC50 in assay [7] was > 32 µM (inactive).

Take `CCCCN(Cc1cc2ccccc2nc1O)C(=O)c1ccccn1`: the IC50 (in assay [8]; in [16]; at Mu-type opioid receptor [17]; in [19]) was > 32 µM (inactive) in each case. The EC50 on Mu-type opioid receptor [9] is > 32 µM (inactive); in assay [10], > 32 µM (inactive); in assay [11], 4.27 µM; in assay [12] it was 3.16 µM; in assay [13], 8.1 µM (active); at Mu-type opioid receptor [14], > 32 µM (inactive). In addition, the EC50 in assay [15] is > 32 µM (inactive); in [18], 5.31 µM (active).
